Experimental data published in patent US11117915B2, “Antibacterial aminoglycoside analogs” (Cipla USA, Inc., priority 2007, dated 2021).
In brackets after ≈: the same amount, converted by molar mass.

How the values were obtained:
[1] = tested on: E. coli ATCC 25922; experiment: MIC assay, CLSI broth microdilution, E. coli ATCC 25922 (AECO001); assay type: cell-based; conditions: Escherichia coli, ATCC25922, 20 h, read-out: MIC AECO001
Description: (§1) Minimum inhibitory concentrations (MIC) were determined by reference Clinical and Laboratory Standards Institute (CLSI) broth microdilution methods per M7-A7 [2006]. Quality control ranges utilizing E. coli ATCC 25922, P. aeruginosa ATCC 27853 and S. aureus ATCC 29213, and interpretive criteria for comparator agents were as published in CLSI M100-S17 [2007]. Briefly, serial two-fold dilutions of the test compounds were prepared at 2× concentration in Mueller Hinton Broth. The compound dilutions were mixed in 96-well assay plates in a 1:1 ratio with bacterial inoculum. The inoculum was prepared by suspension of a colony from an agar plate that was prepared the previous day. Bacteria were suspended in sterile saline and added to each assay plate to obtain a final concentration of 5×10^5 CFU/mL. The plates were incubated at 35° C. for 20 hours in ambient air.
These MIC assays were conducted following the same protocol as set forth in Example 110. As shown, substituted sisomicin derivatives with groups other than methyl at the 6′-position have improved activity against strains expressing the AAC6′-modifying enzymes.

[2] = tested on: P. aeruginosa ATCC 27853; experiment: MIC assay, CLSI broth microdilution, P. aeruginosa ATCC 27853 (APAE001); assay type: cell-based; conditions: Pseudomonas aeruginosa, ATCC27853, 20 h, read-out: MIC APAE001
Description: as §1

Row | SMILES | MIC [1] [µg/mL] | MIC [2] [µg/mL]
1 | CN[C@@H]1[C@@H](O)[C@@H](O[C@@H]2[C@@H](O)[C@H](O[C@H]3OC(CNCCO)=CC[C@H]3NC(=N)N)[C@@H](N)C[C@H]2N)OC[C@]1(C)O [Example 106, 6′-(2-Hydroxy-ethyl)-2′-guanidinium-sisomicin] | < 1 | 1 to 16 (≈ 1.87 to 30 µM)
2 | CN[C@@H]1[C@@H](O)[C@@H](O[C@@H]2[C@@H](O)[C@H](O[C@H]3OC(CNCC(O)CO)=CC[C@H]3N)[C@@H](N)C[C@H]2NC(=O)[C@@H](O)CN)OC[C@]1(C)O (stereo partly drawn) [Example 14, 6′-(2-Hydroxy-propanol)-1-(3-amino-2(S)-hydroxy-propionyl)-sisomicin] | 1 to 16 (≈ 1.64 to 26.3 µM) | 1 to 16 (≈ 1.64 to 26.3 µM)
3 | CN[C@@H]1[C@@H](O)[C@@H](O[C@@H]2[C@@H](O)[C@H](O[C@H]3OC(CN)=CC[C@H]3NCC3CCNC3)[C@@H](N)C[C@H]2NC(=O)[C@@H](O)CCN)OC[C@]1(C)O (stereo partly drawn) [Example 84, 2′-(Methyl-pyrrolidin-3-yl)-1-(4-amino-2(S)-hydroxy-butyryl)-sisomicin] | < 1 | 1 to 16 (≈ 1.58 to 25.3 µM)
4 | CN[C@@H]1[C@@H](O)[C@@H](O[C@@H]2[C@@H](O)[C@H](O[C@H]3OC(CNC[C@H](O)C(=O)O)=CC[C@H]3N)[C@@H](N)C[C@H]2NC(=O)[C@@H](O)CCN)OC[C@]1(C)O [Example 50, 6′-(2(S)-Hydroxy-3-propanoic)-1-(4-amino-2(S)-hydroxy-butyryl)-sisomicin] | > 16 | > 16
5 | CN[C@@H]1[C@@H](O)[C@@H](O[C@@H]2[C@@H](O)[C@H](O[C@H]3OC(CN)=CC[C@H]3NCC(O)CO)[C@@H](N)C[C@H]2NC(=O)[C@@H](O)CCN)OC[C@]1(C)O (stereo partly drawn) [Example 100, 2′-(2-Hydroxy-propanol)-1-(4-amino-2(S)-hydroxy-butyryl)-sisomicin] | 1 to 16 (≈ 1.61 to 25.7 µM) | > 16
6 | CN[C@@H]1[C@@H](O)[C@@H](O[C@@H]2[C@@H](O)[C@H](O[C@H]3OC(CNCCCO)=CC[C@H]3N)[C@@H](N)C[C@H]2NC(=O)[C@@H](O)CN)OC[C@]1(C)O [Example 54, 6′-(3-Propanol)-1-(3-amino-2(S)-hydroxy-propionyl)-sisomicin] | < 1 | 1 to 16 (≈ 1.69 to 27 µM)
7 | CN[C@@H]1[C@@H](O)[C@@H](O[C@@H]2[C@@H](O)[C@H](O[C@H]3OC(CNCC(C)(C)N)=CC[C@H]3N)[C@@H](N)C[C@H]2NC(=O)[C@@H](O)CN)OC[C@]1(C)O [Example 55, 6′-(2-Methyl-2-amino-propyl)-1-(3-amino-2(S)-hydroxy-propionyl)-sisomicin] | 1 to 16 (≈ 1.65 to 26.4 µM) | > 16
8 | CN[C@@H]1[C@@H](O)[C@@H](O[C@@H]2[C@@H](O)[C@H](O[C@H]3OC(CNCC4CC4)=CC[C@H]3N)[C@@H](N)C[C@H]2NC(=O)C(O)C2CNC2)OC[C@]1(C)O (some centres unmarked) [Example 71, 6′-Methylcyclopropyl-1-(2-(azetidin-3-yl)-2-hydroxy-acetyl)-sisomicin] | 1 to 16 (≈ 1.63 to 26 µM) | > 16
9 | CN[C@@H]1[C@@H](O)[C@@H](O[C@@H]2[C@@H](O)[C@H](O[C@H]3OC(CNCCCN)=CC[C@H]3N)[C@@H](N)C[C@H]2NC(=O)[C@H](O)CN)OC[C@]1(C)O [Example 11, 6′-(3-Amino-propyl)-1-(3-amino-2(R)-hydroxy-propionyl)-sisomicin] | < 1 | 1 to 16 (≈ 1.69 to 27 µM)
10 | CN[C@@H]1[C@@H](O)[C@@H](O[C@@H]2[C@@H](O)[C@H](O[C@H]3OC(CNC(=O)C(O)CN)=CC[C@H]3N)[C@@H](N)C[C@H]2NC(=O)[C@@H](O)CN)OC[C@]1(C)O (stereo partly drawn) [Example 20, 6′-(3-Amino-2-hydroxy-propionyl)-1-(3-amino-2(S)-hydroxy-propionyl)-sisomicin] | > 16 | > 16
11 | CN[C@@H]1[C@@H](O)[C@@H](O[C@@H]2[C@@H](O)[C@H](O[C@H]3OC(CNCCO)=CC[C@H]3N)[C@@H](N)C[C@H]2NC(=O)CO)OC[C@]1(C)O [Example 25, 6′-(2-Hydroxy-ethyl)-1-(2-hydroxy-acetyl)-sisomicin] | 1 to 16 (≈ 1.82 to 29.1 µM) | 1 to 16 (≈ 1.82 to 29.1 µM)
12 | CN[C@@H]1[C@@H](O)[C@@H](O[C@@H]2[C@@H](O)[C@H](O[C@H]3OC(CNCCCN)=CC[C@H]3N)[C@@H](N)C[C@H]2NC(=O)CO)OC[C@]1(C)O [Example 24, 6′-(3-Amino-propyl)-1-(2-hydroxy-acetyl)-sisomicin] | 1 to 16 (≈ 1.78 to 28.4 µM) | 1 to 16 (≈ 1.78 to 28.4 µM)
13 | CN[C@@H]1[C@@H](O)[C@@H](O[C@@H]2[C@@H](O)[C@H](O[C@H]3OC(CNCC(O)CCN)=CC[C@H]3N)[C@@H](N)C[C@H]2NC(=O)[C@@H](O)CN)OC[C@]1(C)O (stereo partly drawn) [Example 68, 6′-(2-Hydroxy-4-amino-butyl)-1-(3-amino-2(S)-hydroxy-propionyl)-sisomicin] | 1 to 16 (≈ 1.61 to 25.7 µM) | 1 to 16 (≈ 1.61 to 25.7 µM)
